Test results reported in ChEMBL document CHEMBL1132340, “Novel prodrug approach for tertiary amines: synthesis and preliminary evaluation of N-phosphonooxymethyl prodrugs” (J Med Chem, 1999).

How the values were obtained:
Type in all cases: physicochemical
[1] = pKa2 value of the compound; settings: read-out: pKa2
[2] = pKa value of the compound
[3] = pKa1 value of the compound; settings: read-out: pKa1

Structure (SMILES)	pKa [1]	pKa [2]	pKa [3]
C[N+]1(COP(=O)(O)O)CCN(C2=Nc3ccccc3Oc3ccc(Cl)cc32)CC1	7.5	–	–
CCCCc1oc2ccccc2c1C(=O)c1cc(I)c(OCC[N+](CC)(CC)COP(=O)(O)O)c(I)c1	–	6.56	–
O=P(O)(O)OC[N+]1(C/C=C/c2ccccc2)CCN(C(c2ccccc2)c2ccccc2)CC1	7.47	–	1.95
